In a melting point compilation (Tetko et al.; mined from patent text by program, amines drawn as free bases though some values may be those of a salt) one finds melting point data, which are given here for 91 compounds.

By melting point is commonly meant the temperature of the solid-liquid transition. `Cc1ccc(-c2c(C(=O)NCc3cc(C(F)(F)F)cc(C(F)(F)F)c3)n(CCCCO)c(=O)c3ncccc23)cc1` displayed a melting point of 187 to 188 °C.

The compound `Cn1c(C(F)(F)F)cc(=O)n(-c2c(F)ccc3nc(Cl)sc23)c1=O` had a melting point of 69 to 71 °C. The figure for `O=C(c1ccc(OCCN2CCCCC2)cc1)c1c(-c2ccc(O)cc2)sc2ccccc12` is 100 to 103 °C; for `CC(C)COc1ccc(C(=O)N/C(=C\c2ccc(OC(F)F)cc2)C(=O)NCCO)cc1` it is 75 to 78 °C.

`O=C(Nc1nc(-c2ccoc2)c(C(=O)C2CCOCC2)s1)c1ccnc(Cl)c1` returned a melting point of 202 to 204 °C. Regarding `CSc1ncc2cc(C)c(=O)[nH]c2n1`, the melting point lay in the range of 243 to 245 °C. The figure for `O=c1[nH]c2ccccc2c(=O)cc1Nc1ccccc1` is 227 to 228 °C. Under `COc1ccc(-c2cc(=O)n(CC=Cc3ccc(Cl)cc3)nc2-c2ccc(OC)c(F)c2)cc1` stands 144 to 145 °C; under `COCc1c(C(=O)NC(C)C)ncc2[nH]c3cccc(Oc4ccc(Cl)cc4)c3c12`, 255 °C; under `COc1cc2c(cc1OC)[C@@H]1CCCC[C@@H]1N=C2c1ccc([N+](=O)[O-])c([N+](=O)[O-])c1`, 162 to 165 °C. Under `CCN(c1ccncc1)c1ccccc1C(=O)N1CCCCC1` stands 123 to 124 °C; under `C#CCCCCCCOC(c1ccccc1)(c1ccccc1)c1ccccc1`, 43 to 45 °C. With `COCCNC(=O)c1cc(C(=O)OC)c2cc(Cc3ccc(F)cc3)cnc2c1O`, the melting point fell in the range of 165 to 167 °C. The figure for `CC(C)OC(=O)Cn1c(=O)n(C)c(=O)n(-c2ccc(F)cc2Cl)c1=O` is 127 to 128 °C; for `COc1ccc2cc(NC(C)=O)c3ccc(C)cc3c2c1OC` it is 190 to 192 °C; for `COc1cc(/C=C/CNc2cccc(-c3ccnc4c(C(=O)c5cccs5)cnn34)c2)ccc1O` it is 180 to 184 °C. The figure for `O=[N+]([O-])c1nccnc1NCC(O)CO` (stereo unspecified) is 100 to 102 °C.

Compound `Nc1ccc(CCC(=O)Nc2ccc(Cl)cc2Cl)cc1[N+](=O)[O-]` came in with a melting point of 164 to 165 °C.

On to `COc1ccc(COC(=O)[C@@H]2C[C@@H](O)CN2C(=O)OCc2ccc([N+](=O)[O-])cc2)cc1`, for which the melting point fell in the range of 83 to 85 °C.

For the compound `CCCc1nc2ccccc2[nH]1`, the melting point was 160 to 162 °C.

Turning to `O=C1c2ccccc2C(=O)N1CCCCOc1ccncc1`, the melting point was 126 to 127 °C.

In turn, `CN1CNC(=S)N(c2ccc(N(C)C)cc2)C1` had a melting point of 173 to 175 °C. The figure for `CCOC(=O)c1c(Cn2cncn2)nc2sc(C)c(C)c2c1-c1ccc(OC)c(OC)c1` is 136 to 137 °C; for `O=C1CC(CO)N1C(c1ccccc1)c1ccccc1` (stereo unspecified) it is 101 to 102 °C; for `CCN(CC)CCCCC1CCN(C(=O)N2c3ccccc3C(=O)Nc3cccnc32)CC1` it is 126 to 127 °C. Turning to `CCOC(=O)Cc1ccc(C(=O)Cl)n1C`, the melting point is 52 to 54 °C.

`Cc1ccc(CN(C(=O)Nc2c(C(C)C)cccc2C(C)C)c2ccc(C(C)C)cc2)c(C)c1`: the melting point was 100 °C.

`Cc1cnc2c(c1)c(C#N)c(-c1ccc(S(=O)(=O)N[C@@H](C)C(F)(F)F)cn1)n2C1CCC1` came in with a melting point of 177 to 179 °C. Under `O=c1cc(-c2ccncc2)nc2[nH]c3ccccc3n12` stands 300 to 302 °C. Compound `COc1cc(Nc2c(C#N)cnc3cc(Sc4ccccc4)c(OC)cc23)c(Cl)cc1Cl` showed a melting point of 220 to 222 °C. The figure for `CC(C)C1SC=CNC1=O` (racemic) is 101 to 106 °C; for `CC=CCNc1cc(C(=O)O)cc(S(N)(=O)=O)c1Sc1ccc(N)cc1` it is 242 °C. Compound `CCCCc1nc(C(C)(O)CC)c(C#N)n1C(c1ccccc1)(c1ccccc1)c1ccccc1` (stereo unspecified) showed a melting point of 90 to 93 °C.

Compound `O=[N+]([O-])c1cccnc1NCc1ccc(Cl)cc1` displayed a melting point of 95 to 96 °C. For `COC(=O)C1=C(C)Nc2ccccc2SC1c1cccc([N+](=O)[O-])c1` (stereo unspecified), the melting point lay within 140 to 142 °C.

Compound `CCCCCCCCC1(C#N)CCC(c2ccc(-c3ccc(CCCC)cc3)cc2)CC1` (stereo unspecified) returned a melting point of 52 °C. The figure for `COc1ccc(C=C(Br)Br)cc1O` is 94 to 95 °C. The figure for `CN[C@@H]1CCN(c2ccc3c(NC(=O)CC4CCCCC4)c(Cl)ccc3n2)C1` is 169 °C; for `O=C(O)[C@@H]1CCCN1C(=O)C(Sc1nc2cc(Cl)ccc2s1)c1ccccc1` (stereo partly specified) it is 160 to 161 °C; for `O=C1C(C(c2cc(F)ccc2F)S(=O)(=O)c2ccc(Cl)cc2)CCCN1CCCO` (stereo unspecified) it is 120 to 121 °C. Consider `CCn1c(=O)c2c(nc(/C=C/c3ccc(OCc4ccccc4)cc3)n2C)n(CC)c1=O`, for which the melting point is 185 °C. The figure for `CC(C)(NS(=O)(=O)c1ccc(-c2ccccn2)s1)C(=O)NO` is 165 to 166 °C. Under `CCCc1c(OCCCOc2ccc(C(=O)O)cc2Cl)ccc(C(C)=O)c1O` stands 171 to 172 °C; under `CC(C)Cn1c(OCc2ccccc2)noc1=O`, 53 to 60 °C; under `O=CN=C1SCCN1Cc1ccc(Cl)nc1`, 99 to 100 °C.

With `Cc1oc2c(Br)cc(C=O)cc2c1C`, the melting point came out at 126 °C. Compound `COc1cc(Nc2nc3cccc(-c4ccc(NS(C)(=O)=O)cc4)c3o2)cc(OC)c1OC` showed a melting point of 222 to 225 °C.

`Cc1c(F)c(N2CC[C@@H](C(C)(C)N)C2)cc2c1c(=O)c(C(=O)O)cn2-c1ccc(F)cc1F` returned a melting point of 156 to 158 °C. For the compound `Cc1ccc2c(ccn2C)c1O`, the melting point was found to be 68 °C.

Regarding `CC1(C)OC(C=Cc2cccs2)=CC1=O`, the melting point is 75 to 77 °C.

Take `O=C(O)C1c2ccccc2COc2ccc(Cl)cc21` (stereo unspecified): the melting point was 182 to 183 °C. Compound `CCCCCCCCN(CCCCCCCC)C(=O)Nc1ccccc1CCc1cc(C(C)(C)C)c(O)c(C(C)(C)C)c1` displayed a melting point of 55 to 60 °C. Under `O=C(CCCCCNC(=O)C(c1ccccc1)c1ccccc1)NO` stands 55 to 56 °C. Under `CC1(C)CCc2cccc3c(-c4ccc(F)cc4)c(C=CC4CC(O)CC(=O)O4)n1c23` (stereo unspecified) stands 166 °C; under `COC(=O)c1cn2c(=O)c(Cl)c(C)nc2s1`, 218 to 220 °C. For `CC1(C)[C@H](C(=O)OCc2csc(Oc3ccccc3)n2)[C@@H]1C=C1CCSC1=O`, the melting point came to 78 °C. Under `CCOc1ccc(OCCOCCOC)c2c1C(=O)N(CSc1ccccc1)S2(=O)=O` stands 73 to 75 °C. The figure for `CCOc1nc(-c2cc(NC(=O)c3ccc(C)c(F)c3)ccc2C)c2c(n1)N(c1c(F)cccc1F)C(=O)NC2` is 257 to 262 °C. `Cc1nnc(-c2ccc3occ(-c4cccc(F)c4)c3c2)o1` yielded a melting point of 138 to 139 °C.

Compound `ClC[Si](c1ccc(Cl)cc1)(c1ccc(Cl)cc1)c1ccc(Cl)cc1` displayed a melting point of 89 to 93 °C. The figure for `CC(CCCc1ccccc1)n1nnc2c(=O)[nH]c(Cc3ccccc3)nc21` (stereo unspecified) is 112 °C; for `CCCC1CCc2cc(NC(=O)OCC)ccc2O1` (stereo unspecified) it is 94 °C.

In turn, `O=C1CC2Cc3ccccc3N2CCN1` (stereo unspecified) returned a melting point of 186 to 188 °C. In the case of `CCCCC12CCC3C4=C(CCC3C1CCC2O)CC(OC)=CC4` (stereo unspecified), the melting point was in the range of 135 to 139 °C.

The compound `CC1(C)CCC(C)(C)c2cc(C#Cc3ccc(CN)cc3)ccc21` showed a melting point of 84 to 88 °C. The figure for `Cc1ccc(-c2nc3cccnc3n2CC(=O)N(C)C)s1` is 193 to 197 °C; for `O=C(NCCl)Oc1cccc(Cl)c1` it is 90 °C. The figure for `Cc1cc(Cl)cc(Cl)c1CNc1c(N[C@H](C)C(C)(C)C)c(=O)c1=O` is over 300 °C; for `Cn1cnc2c(Cl)ncnc21` it is 205 to 207 °C; for `CCC(C)(C)NC(=S)Nc1cc(F)cc(Br)c1` it is 123 to 124 °C.

Take `Cc1ccc2sc(C(C)(C)C)nc2c1`: the melting point was in the range of 55 to 57 °C. Under `Brc1ccc(-c2nn[nH]n2)cc1` stands 271 to 273 °C; under `c1ccc(C2(N3CCC(n4c(OC5CCNCC5)nc5ccccc54)CC3)CCCCCC2)cc1`, 114 to 118 °C. Under `CCOP(=O)(/C=C/c1cn(-c2ccccc2)nc1OCc1ccc(OCc2csc(N3CCOCC3)n2)c(OC)c1)OCC` stands 93 to 94 °C; under `Cc1sc2cc(C3=NCCS3)[nH]c2c1N(C)S(=O)(=O)c1cccs1`, 140 °C; under `CN(SC(Cl)(Cl)Cl)c1nc(C(Cl)(Cl)Cl)ns1`, 106 °C.

Regarding `CCOC(=O)C1N=c2ccsc2=CN1N` (stereo unspecified), the melting point lay within 139 to 141 °C. The figure for `Cc1c(OCC(F)(F)F)ccnc1CS(=O)c1nc2cc(-n3ccnc3)c(F)cc2[nH]1` (stereo unspecified) is 234 to 235 °C; for `CCC(c1ccccc1)c1c(O)c2c(oc1=O)CCC2` (stereo unspecified) it is 183 to 186 °C. The compound `CCCCCCCCCCCCC#CC#CCn1c2ccccc2c2ccccc21` showed a melting point of 53 to 58 °C. The figure for `COC(=O)c1ccc(-c2cc(C(=O)NC3CC3)cc(F)c2C)c(C(=O)O)c1` is 217 to 222 °C; for `CC(C)COc1ccc(-c2nc3cccc(O)c3s2)cc1C#N` it is 200 to 202 °C; for `COC(=O)c1cnc(NC(C)C)nc1C` it is 118 to 119 °C. The compound `O=C(Oc1ccc([N+](=O)[O-])cc1)c1cccc2c(Cl)c3ccccc3nc12` came in with a melting point of 194 to 196 °C. For `Cn1c(=O)[nH]c(=O)c2c1ncn2CC(=O)Nc1ccc(C2CCCC2)cc1`, the melting point fell in the range of 295 to 300 °C. Turning to `CC(=O)n1nc(C2CCN(CCc3c(C)nc4c(C)cccn4c3=O)CC2)c2ccc(F)cc21`, the melting point was found to be 210 °C. The figure for `[N-]=[N+]=NC1CC(n2cc(Cl)c(=O)[nH]c2=O)OC1CO` (stereo unspecified) is 65 °C.

Compound `C=Cc1cnc(-c2ccccn2)nc1` registered a melting point of 103 °C.

Compound `O[C@@H]1CN=C(c2ccoc2)O[C@H]1c1ccccc1` (racemic) gave a melting point of 160 °C. `Cc1c(C)c(Cl)c(Cl)c(Cl)c1Cl` gave a melting point of 85 to 89 °C. The figure for `CCNc1nc2ccccc2n2c(CC)nnc12` is 235 to 238 °C.
